# According to ChEMBL document CHEMBL3638917, “Triazine derivatives” (2015):
# Molecular target: T1, cAMP and cAMP-inhibited cGMP 3',5'-cyclic phosphodiesterase 10A (Rattus norvegicus, UniProt Q9QYJ6)
# T1 sequence (Q9QYJ6 whole entry): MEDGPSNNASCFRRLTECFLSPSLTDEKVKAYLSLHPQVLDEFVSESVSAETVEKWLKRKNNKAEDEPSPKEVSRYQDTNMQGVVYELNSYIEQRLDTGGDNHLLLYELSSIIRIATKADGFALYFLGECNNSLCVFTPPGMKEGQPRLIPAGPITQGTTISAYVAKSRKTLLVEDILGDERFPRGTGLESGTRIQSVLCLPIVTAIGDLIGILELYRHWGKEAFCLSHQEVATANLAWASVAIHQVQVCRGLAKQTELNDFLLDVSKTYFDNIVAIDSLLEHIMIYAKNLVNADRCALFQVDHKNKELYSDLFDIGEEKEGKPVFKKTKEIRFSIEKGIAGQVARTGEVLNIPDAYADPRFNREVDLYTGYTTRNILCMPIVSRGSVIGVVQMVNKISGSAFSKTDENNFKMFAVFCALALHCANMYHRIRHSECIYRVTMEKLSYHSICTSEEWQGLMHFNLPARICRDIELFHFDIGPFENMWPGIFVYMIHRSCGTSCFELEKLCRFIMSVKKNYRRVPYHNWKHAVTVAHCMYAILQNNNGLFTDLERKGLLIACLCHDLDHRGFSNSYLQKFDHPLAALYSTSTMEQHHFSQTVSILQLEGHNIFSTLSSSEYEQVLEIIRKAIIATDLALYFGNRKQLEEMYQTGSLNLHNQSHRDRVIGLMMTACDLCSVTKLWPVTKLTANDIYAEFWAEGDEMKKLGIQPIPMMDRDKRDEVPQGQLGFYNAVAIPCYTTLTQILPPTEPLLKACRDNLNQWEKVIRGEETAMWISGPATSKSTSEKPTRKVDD
# Experiment: The products of Examples 1-175 were tested in the assay described below.PDE10 activity was measured using a scintillation assay (SPA-based method) similar to that previously described by Seeger, T. F. et al., Brain Research 985 (2003) 113-126. The compounds' relative activity as PDE10 inhibitors was investigated by assaying a fixed amount of enzyme in the presence of the test compound and low substrate concentration (cAMP) such that an IC50 could be determined. […] The assay is performed in a 384-well format with 50 uL assay buffer (50 mM TRIS pH 7.5; 1.3 mM MgCl2; 0.01% Brij) containing enough PDE10.
smiles,measurement,value
CCc1nn(C)c2c1CN(c1ncnn3c(C)nc(-c4cccc(OC)c4)c13)CC2,IC50,2.7 nM
